Measurements from patent publication US11730714B2, “Compounds for the treatment of neuromuscular disorders” (NMD PHARMA A/S, priority 2017, dated 2023).

Legend:
rat soleus muscles = assay type: cell-based; settings: 10 and 25 μM C8; 1 μM μ-conotoxin GiiiB; vs control conditions
isolated human muscles = assay type: cell-based; settings: 150 μM C8; elevated extracellular K+ and low dose TTX
[1] = Pharmacokinetic analysis of C8 in rats, single I.P. dose; assay type: in vivo, rat; settings: one-bolus I.P. injection
Experimental: This part of the study was performed by Pipeline Biotech A/S (Spørring, Denmark). […] Plasma concentrations (free and bound) were determined by OnTarget Chemistry (Uppsala, Sweden, Project No.: PB243-001).
Before conducting in vivo experiments with animal models of myasthenia gravis, some pharmacokinetic details were obtained for C8 in response to one-bolus I.P. injection.

CIC-1 channels = target: T1, CIC-1 channels (Rattus norvegicus, UniProt P35524); assay: Electrophysiological measurement of compound inhibition of CIC-1 in rat muscle (Gm, EC50); assay type: cell-based; settings: rat soleus muscle fibres, three micro-electrode Gm measurement; read-out: EC50 (inhibition of ClC-1 ion channel, Gm)
T1 construct: Gm was measured in individual fibres of whole rat soleus muscles; from tissue; host or cells: soleus muscle of adult (12-14 week old) Wistar rats
T1 sequence (P35524 1-994): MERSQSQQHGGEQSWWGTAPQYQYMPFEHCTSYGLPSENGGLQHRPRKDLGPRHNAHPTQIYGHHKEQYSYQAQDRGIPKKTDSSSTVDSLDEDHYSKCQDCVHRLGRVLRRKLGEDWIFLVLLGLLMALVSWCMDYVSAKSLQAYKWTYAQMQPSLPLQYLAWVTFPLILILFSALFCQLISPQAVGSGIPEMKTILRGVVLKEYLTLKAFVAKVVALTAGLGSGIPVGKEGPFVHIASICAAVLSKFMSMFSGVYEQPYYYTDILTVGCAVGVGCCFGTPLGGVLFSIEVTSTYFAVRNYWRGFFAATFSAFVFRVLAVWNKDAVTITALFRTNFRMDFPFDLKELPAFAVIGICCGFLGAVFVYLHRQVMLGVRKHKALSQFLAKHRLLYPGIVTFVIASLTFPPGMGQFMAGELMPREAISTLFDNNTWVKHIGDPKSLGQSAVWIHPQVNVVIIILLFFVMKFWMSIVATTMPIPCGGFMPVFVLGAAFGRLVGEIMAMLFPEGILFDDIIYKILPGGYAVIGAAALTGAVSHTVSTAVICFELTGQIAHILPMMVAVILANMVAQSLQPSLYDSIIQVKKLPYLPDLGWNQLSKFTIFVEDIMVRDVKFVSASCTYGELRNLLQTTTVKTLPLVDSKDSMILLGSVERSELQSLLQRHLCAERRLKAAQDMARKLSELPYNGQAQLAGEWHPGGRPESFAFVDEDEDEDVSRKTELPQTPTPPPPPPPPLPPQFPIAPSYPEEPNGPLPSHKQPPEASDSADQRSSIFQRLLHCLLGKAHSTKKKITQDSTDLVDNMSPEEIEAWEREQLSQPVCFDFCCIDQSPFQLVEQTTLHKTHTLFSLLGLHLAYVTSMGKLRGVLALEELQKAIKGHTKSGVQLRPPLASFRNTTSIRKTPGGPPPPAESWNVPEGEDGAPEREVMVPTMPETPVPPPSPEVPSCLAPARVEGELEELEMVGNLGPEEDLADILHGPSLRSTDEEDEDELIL

human CIC-1 channels = target: T2, human CIC-1 channels (Homo sapiens, UniProt P35523); assay: Automated patch-clamp on human CIC-1 expressed in CHO cells (shift in half activation voltage V1/2); assay type: cell-based; settings: compound in intracellular solution vs vehicle control patches; CHO cells expressing human ClC-1
T2 construct: host or cells: CHO (Chinese hamster ovary) cells, cryopreserved, used directly after thawing
T2 sequence (P35523 whole entry): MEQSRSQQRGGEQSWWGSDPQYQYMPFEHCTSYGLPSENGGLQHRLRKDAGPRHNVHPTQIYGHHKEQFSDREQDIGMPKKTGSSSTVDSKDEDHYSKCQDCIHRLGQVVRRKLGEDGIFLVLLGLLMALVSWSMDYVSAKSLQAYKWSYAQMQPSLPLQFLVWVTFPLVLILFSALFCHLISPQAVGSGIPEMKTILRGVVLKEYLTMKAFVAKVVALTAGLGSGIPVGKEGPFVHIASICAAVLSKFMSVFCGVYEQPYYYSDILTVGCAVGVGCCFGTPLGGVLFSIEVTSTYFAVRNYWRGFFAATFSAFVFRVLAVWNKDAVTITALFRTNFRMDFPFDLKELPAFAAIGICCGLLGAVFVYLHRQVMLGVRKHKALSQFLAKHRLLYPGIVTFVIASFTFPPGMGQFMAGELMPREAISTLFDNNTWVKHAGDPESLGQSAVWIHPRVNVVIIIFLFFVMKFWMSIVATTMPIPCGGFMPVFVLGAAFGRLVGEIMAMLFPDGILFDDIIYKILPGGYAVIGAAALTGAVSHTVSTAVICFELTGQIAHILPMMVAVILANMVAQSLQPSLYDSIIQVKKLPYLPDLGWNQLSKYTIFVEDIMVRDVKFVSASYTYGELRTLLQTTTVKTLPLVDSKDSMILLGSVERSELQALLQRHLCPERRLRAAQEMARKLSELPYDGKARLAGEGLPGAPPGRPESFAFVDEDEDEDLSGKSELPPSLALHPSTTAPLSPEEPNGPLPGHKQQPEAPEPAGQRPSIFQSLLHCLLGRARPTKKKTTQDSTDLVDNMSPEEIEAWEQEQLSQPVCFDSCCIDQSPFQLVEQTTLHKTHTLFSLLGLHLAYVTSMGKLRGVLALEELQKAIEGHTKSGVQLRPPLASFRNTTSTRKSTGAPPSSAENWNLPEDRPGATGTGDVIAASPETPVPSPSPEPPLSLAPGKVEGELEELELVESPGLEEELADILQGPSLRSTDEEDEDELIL
Experimental: FIG. 13A-13B: FIG. 13A illustrates the voltage protocol used to evoke currents in whole cell patches of CHO cells expressing human CIC-1 channels.
The investigatory goal of these experiments was to evaluate how compounds affect the open probability and current amplitude of human CIC-1 channels expressed in CHO cells. Experiments were performed using an automated patch clamp system that allowed high throughput testing of whole cell patches together with both intracellular and extracellular addition of compound.
Automated whole cell patch clamp experiments were performed with the Qpatch 16 system (Sophion Bioscience, Ballerup, Denmark) at room temperature. Data acquisition and analysis were performed in the Qassay software (ver. 5.6, Odense).
To obtain tail currents, the membrane potential was stepped to −100 mV after each test voltage for 300 ms and then relaxed to −30 mV for 2 sec between sweeps (FIG. 3). I/V relationships for whole cell instant and steady state current amplitudes were obtained by plotting average current densities at the beginning and at the end of the 300 ms step against the membrane potential (FIG. 4).
In order to determine the relative overall open probability (Po), the instantaneous tail currents were normalized to the maximal tail current obtained following the most positive voltage step and plotted against the test voltage. Plots of normalized tail currents from each whole cell patch were then fitted to a Boltzmann function allowing determination of half activation voltages (V1/2, FIG. 5).
Osmolality adjusted to […] using sucrose.
Intracellular solutions contained: 80 mM […], 60 mM CsCl, 5/1 mM KOH/EGTA, 10 mM HEPES, 10 mM NaCl, pH adjusted to 7.2 with NaOH (2 M). Osmolality adjusted to ˜320 mOsm using sucrose.
Cells used in patch clamp experiments were Chinese hamster ovary cells (CHO) constitutively expressing human CIC-1 channels. The amino acid sequence encoded by the cDNA used to create this cell line was identical to the translated sequence for GenBank accession number NM_000083.2. Cells were produced by Charles River (Catalogue CT6175, Cleveland Ohio, USA) in a cryopreserved format. Experiments were performed on the cells directly after thawing (3×10^6 cells used in each experiment).
To evaluate the compound effect on CIC-1, when applied directly to the intracellular side of the cell membrane, the half activation voltage, V1/2, was determined from whole cell patches with compound added to the intracellular solution and then compared to V1/2 determined from control cell patches with only vehicle added to the intracellular solution. Additionally, the effect of extracellular added compound was evaluated by determine V1/2 and steady state current amplitudes before and after exchanging the extracellular solution to contain compound.
The difference in half activation voltage of CIC-1 channels, […]V1/2, was determined as the difference between the cell patches treated intracellularly with compound and control cells patches and is reported in Table 4 below. A positive shift in […]V1/2 is reflecting CIC-1 channel inhibition by the tested compound. P-values of <0.05 is considered significant.

| Molecule | EPP amplitude (rat soleus muscles) | contractile force (isolated human muscles) | Cl_obs [1] [mL/h] | VD_obs [1] [mL] | EC50 (CIC-1 channels) [µM] | ΔV½ (difference in half activation voltage of ClC-1) (human CIC-1 channels) [mV] |
| --- | --- | --- | --- | --- | --- | --- |
| C[C@H](Oc1ccc(Br)cc1)C(=O)O [Compound C8, (2S)-2-(4-bromophenoxy)propanoic acid] | significantly larger EPPs | markedly recovery | 48.69 | 259.62 | – | – |
| (2S)-2-(4-bromophenoxy)(2-^2H)butanoic acid [Compound A-60] | – | – | – | – | 7.5 ± 1 | 20.0 |
